What was measured:
Test in all cases: bio-layer interferometry
[1] = tested on: intermolecular hTELO-G4 (DNA, G4) TTAGGGTTAGGGTTAGGG; conditions: PBS (ion concentrations not given), 0.5% DMSO, 0.02% Tween-20, highest hemin 8 μM
[2] = tested on: MYC-G4 (DNA, G4) TGAGGGTGGGTAGGGTGGGTAA; conditions: PBS (ion concentrations not given), 0.5% DMSO, 0.02% Tween-20, 25 °C sensor hydration
[3] = tested on: ssDNA oligonucleotide (DNA, single strand) GGCATAGTGCGTGGGCG; conditions: PBS (ion concentrations not given), 0.5% DMSO, 0.02% Tween-20, highest hemin 8 μM
[4] = tested on: double-stranded DNA (DNA, duplex) GGCATAGTGCGTGGGCG/CGCCCACGCACTATGCC; conditions: PBS (ion concentrations not given), 0.5% DMSO, 0.02% Tween-20, highest hemin 8 μM
[5] = tested on: SPB1-G4 (DNA, G4) GGCGAGGGGCGTGGCCGGC; conditions: PBS (ion concentrations not given), 0.5% DMSO, 0.02% Tween-20, highest hemin 8 μM
[6] = tested on: hTELO-G4 (DNA, G4) GGTTAGGGTTAGGGTTAGGGTTAGGGTTAG; conditions: PBS (ion concentrations not given), 0.5% DMSO, 0.02% Tween-20, highest hemin 8 μM

binding [1]	KD ([2]; hemin 0.5-8 μM)	binding [3]	binding [4]	binding [5]	binding [6]	KD ([2]; PpIX 1.25-20 μM)	SMILES
no	1520 ± 40 nM	no	no	no	no	–	C=CC1=C(C)c2cc3[n-]c(cc4[n-]c(cc5nc(cc1n2)C(C)=C5C=C)c(C)c4CCC(=O)O)c(CCC(=O)O)c3C.[Cl-].[Fe+3]
–	–	–	–	–	–	3040 ± 50 nM	C=CC1=C(C)c2cc3[nH]c(cc4nc(cc5[nH]c(cc1n2)c(C)c5CCC(=O)O)C(CCC(=O)O)=C4C)c(C)c3C=C

From publication PMC9753424 (2022)
